Assay results published in paper PMC9287381, “Structure-based rational design of an enhanced fluorogen-activating protein for fluorogens based on GFP chromophore” (Communications Biology, 2022).
Changes are numbered by the printed parent chain.

Experiments:
Experiment in all cases: spectrofluorometric titration of protein with chromophore
[1] = target: T1, FAST (Fluorescence-Activating and absorption-Shifting Tag) (Halorhodospira halophila, UniProt P16113, C69G/D97P/F96I/M100R/Q99S/R52Y/T101G/T95M/Y94W/Y98T); format: binding
T1 construct: gene pyp; engineered full-length PYP variant (~14 kDa); E. coli BL21(DE3)
T1 sequence (P16113 1-125 R52Y/C69G/Y94W/T95M/F96I/D97P/Y98T/Q99S/M100R/T101G): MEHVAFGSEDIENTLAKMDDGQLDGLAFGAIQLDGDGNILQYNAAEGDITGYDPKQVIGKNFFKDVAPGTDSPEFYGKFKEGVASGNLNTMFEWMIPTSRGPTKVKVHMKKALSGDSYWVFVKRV
From the text: (§1) spectrofluorometric titration of protein with chromophore on FAST (Fluorescence-Activating and absorption-Shifting Tag)

[2] = target: T2, FAST (Fluorescence-Activating and absorption-Shifting Tag) (Halorhodospira halophila, UniProt P16113, R52L/C69G/Y94W/T95M/F96I/D97P/Y98T/Q99S/M100R/T101G); format: binding; settings: 0.10 µM protein, 25 °C
T2 construct: gene pyp; engineered full-length PYP variant (~14 kDa); E. coli BL21(DE3)
T2 sequence (P16113 1-125 R52L/C69G/Y94W/T95M/F96I/D97P/Y98T/Q99S/M100R/T101G): T1 sequence (P16113 1-125 R52Y/C69G/Y94W/T95M/F96I/D97P/Y98T/Q99S/M100R/T101G) with Y52L
From the text: as §1

[3] = target: T3, FAST (Fluorescence-Activating and absorption-Shifting Tag) (Halorhodospira halophila, UniProt P16113, C69G/Y94W/T95M/F96I/D97P/Y98T/Q99S/M100R/T101G); format: binding; settings: 0.10 µM protein, 25 °C
T3 construct: gene pyp; engineered full-length PYP variant (~14 kDa); E. coli BL21(DE3)
T3 sequence (P16113 1-125 C69G/Y94W/T95M/F96I/D97P/Y98T/Q99S/M100R/T101G): T1 sequence (P16113 1-125 R52Y/C69G/Y94W/T95M/F96I/D97P/Y98T/Q99S/M100R/T101G) with Y52R
From the text: as §1

[4] = target: T4, FAST (Fluorescence-Activating and absorption-Shifting Tag) (Halorhodospira halophila, UniProt P16113, P68K/C69G/Y94W/T95M/F96I/D97P/Y98T/Q99S/M100R/T101G); format: binding; settings: 0.10 µM protein, 25 °C
T4 construct: gene pyp; engineered full-length PYP variant (~14 kDa); E. coli BL21(DE3)
T4 sequence (P16113 1-125 P68K/C69G/Y94W/T95M/F96I/D97P/Y98T/Q99S/M100R/T101G): T1 sequence (P16113 1-125 R52Y/C69G/Y94W/T95M/F96I/D97P/Y98T/Q99S/M100R/T101G) with Y52R, P68K
From the text: (§2) spectrofluorometric titration of protein with chromophore on FAST (Fluorescence-Activating and absorption-Shifting Tag) | all the S99 mutants, P73S, P68K, D65K

[5] = target: T5, FAST (Fluorescence-Activating and absorption-Shifting Tag) (Halorhodospira halophila, UniProt P16113, D65K/C69G/Y94W/T95M/F96I/D97P/Y98T/Q99S/M100R/T101G); format: binding; settings: 0.10 µM protein, 25 °C
T5 construct: gene pyp; engineered full-length PYP variant (~14 kDa); E. coli BL21(DE3)
T5 sequence (P16113 1-125 D65K/C69G/Y94W/T95M/F96I/D97P/Y98T/Q99S/M100R/T101G): T1 sequence (P16113 1-125 R52Y/C69G/Y94W/T95M/F96I/D97P/Y98T/Q99S/M100R/T101G) with Y52R, D65K
From the text: as §2

[6] = target: T6, FAST (Fluorescence-Activating and absorption-Shifting Tag) (Halorhodospira halophila, UniProt P16113, C69G/P73S/Y94W/T95M/F96I/D97P/Y98T/Q99S/M100R/T101G); format: binding; settings: 0.10 µM protein, 25 °C
T6 construct: gene pyp; engineered full-length PYP variant (~14 kDa); E. coli BL21(DE3)
T6 sequence (P16113 1-125 C69G/P73S/Y94W/T95M/F96I/D97P/Y98T/Q99S/M100R/T101G): T1 sequence (P16113 1-125 R52Y/C69G/Y94W/T95M/F96I/D97P/Y98T/Q99S/M100R/T101G) with Y52R, P73S
From the text: as §2

pFAST = target: T7, pFAST; format: binding, Halorhodospira halophila; settings: 0.10 µM protein, 25 °C
T7 construct: gene pyp; multipoint directed-evolution variant of FAST (itself engineered PYP); E. coli BL21(DE3)
From the text: spectrofluorometric titration of protein with chromophore on pFAST

[7] = target: T8, FAST (Fluorescence-Activating and absorption-Shifting Tag) (Halorhodospira halophila, UniProt P16113, R52E/D65R/C69G/Y94W/T95M/F96I/D97P/Y98T/Q99S/M100R/T101G); format: binding; settings: 0.10 µM protein, 25 °C
T8 construct: gene pyp; engineered full-length PYP variant (~14 kDa); E. coli BL21(DE3)
T8 sequence (P16113 1-125 R52E/D65R/C69G/Y94W/T95M/F96I/D97P/Y98T/Q99S/M100R/T101G): T1 sequence (P16113 1-125 R52Y/C69G/Y94W/T95M/F96I/D97P/Y98T/Q99S/M100R/T101G) with Y52E, D65R
From the text: (§3) spectrofluorometric titration of protein with chromophore on FAST (Fluorescence-Activating and absorption-Shifting Tag) | studied their properties in complex with N871b fluorogen

[8] = target: T9, FAST (Fluorescence-Activating and absorption-Shifting Tag) (Halorhodospira halophila, UniProt P16113, R52E/C69G/Y94W/T95M/F96I/D97P/Y98T/Q99S/M100R/T101G); format: binding; settings: 0.10 µM protein, 25 °C
T9 construct: gene pyp; engineered full-length PYP variant (~14 kDa); E. coli BL21(DE3)
T9 sequence (P16113 1-125 R52E/C69G/Y94W/T95M/F96I/D97P/Y98T/Q99S/M100R/T101G): T1 sequence (P16113 1-125 R52Y/C69G/Y94W/T95M/F96I/D97P/Y98T/Q99S/M100R/T101G) with Y52E
From the text: as §3

[9] = target: T10, FAST (Fluorescence-Activating and absorption-Shifting Tag) (Halorhodospira halophila, UniProt P16113, C69G/Y94W/T95M/F96I/D97P/Y98T/Q99K/M100R/T101G); format: binding; settings: 0.10 µM protein, 25 °C
T10 construct: gene pyp; engineered full-length PYP variant (~14 kDa); E. coli BL21(DE3)
T10 sequence (P16113 1-125 C69G/Y94W/T95M/F96I/D97P/Y98T/Q99K/M100R/T101G): T1 sequence (P16113 1-125 R52Y/C69G/Y94W/T95M/F96I/D97P/Y98T/Q99S/M100R/T101G) with Y52R, S99K

[10] = target: T11, FAST (Fluorescence-Activating and absorption-Shifting Tag) (Halorhodospira halophila, UniProt P16113, C69G/Y94W/T95M/F96I/D97P/Y98T/Q99R/M100R/T101G); format: binding; settings: 0.10 µM protein, 25 °C
T11 construct: gene pyp; engineered full-length PYP variant (~14 kDa); E. coli BL21(DE3)
T11 sequence (P16113 1-125 C69G/Y94W/T95M/F96I/D97P/Y98T/Q99R/M100R/T101G): T1 sequence (P16113 1-125 R52Y/C69G/Y94W/T95M/F96I/D97P/Y98T/Q99S/M100R/T101G) with Y52R, S99R

[11] = target: T12, FAST (Fluorescence-Activating and absorption-Shifting Tag) (Halorhodospira halophila, UniProt P16113, C69G/Y94W/T95M/F96I/D97P/Y98T/Q99E/M100R/T101G); format: binding; settings: 0.10 µM protein, 25 °C
T12 construct: gene pyp; engineered full-length PYP variant (~14 kDa); E. coli BL21(DE3)
T12 sequence (P16113 1-125 C69G/Y94W/T95M/F96I/D97P/Y98T/Q99E/M100R/T101G): T1 sequence (P16113 1-125 R52Y/C69G/Y94W/T95M/F96I/D97P/Y98T/Q99S/M100R/T101G) with Y52R, S99E

[12] = target: T13, FAST (Fluorescence-Activating and absorption-Shifting Tag) (Halorhodospira halophila, UniProt P16113, R52Y/C69G/Y94W/T95M/F96I/D97P/Y98T/Q99S/M100R/T101G); format: binding; settings: 0.10 µM protein, 25 °C
T13 construct: gene pyp; engineered full-length PYP variant (~14 kDa); E. coli BL21(DE3)
T13 sequence (P16113 1-125 R52Y/C69G/Y94W/T95M/F96I/D97P/Y98T/Q99S/M100R/T101G): T1 sequence (P16113 1-125 R52Y/C69G/Y94W/T95M/F96I/D97P/Y98T/Q99S/M100R/T101G)
From the text: as §1

For `COc1cc(O)ccc1/C=C1N=C(/C=C/c2ccncc2)N(C)C\1=O` [N871b], the Kd [1] was 0.24 ± 0.02 µM, the Kd [2] was 0.27 ± 0.01 µM and the Kd [3] was 0.33 ± 0.01 µM. The Kd [4] was 220 ± 10 nM, the Kd [5] was 250 ± 10 nM and the Kd [6] was 170 ± 10 nM. The Kd (pFAST) was 0.04 ± 0.002 µM, the Kd [7] was 1360 ± 220 nM and the Kd [8] was 1300 ± 70 nM. The Kd [9] was 270 ± 10 nM, the Kd [10] was 240 ± 10 nM and the Kd [11] was 210 ± 10 nM.
With `COc1cc(O)ccc1/C=C1N=C(/C=C/c2ccccn2)N(C)C\1=O` [MCL.1f] the Kd [1] was 0.31 ± 0.05 µM, the Kd [2] was 0.39 ± 0.1 µM and the Kd [3] was 0.27 ± 0.04 µM. For the same compound, the Kd (pFAST) was 0.029 ± 0.005 µM.
`COc1cc(O)ccc1/C=C1N=C(/C=C/c2cccs2)N(C)C\1=O` [MCL.1b] was tested, and the Kd [1] was 0.27 ± 0.06 µM, the Kd [2] was 0.44 ± 0.2 µM and the Kd [3] was 0.2 ± 0.04 µM. The Kd (pFAST) was 0.023 ± 0.003 µM.
With `COc1cc(O)ccc1/C=C1\N=C2C=C(/C=C/c3ccncc3)C=CN2C1=O` [MCL.3a] the Kd [12] was 0.11 ± 0.02 µM, the Kd [2] was 0.06 ± 0.01 µM and the Kd [3] was 0.08 ± 0.01 µM. For the same compound, the Kd (pFAST) was 0.025 ± 0.002 µM.
